Measured values as given in patent US20260234165A1, “MACROCYCLIC COMPOUNDS, PREPARATION METHOD THEREFOR, AND USE THEREOF” (GENFLEET THERAPEUTICS (SHANGHAI) INC., priority 2004, published 2026).
Where a name gives a salt, the structure may show the parent alone. Read-outs that look alike come from different tables or passages of the source.

Experiments:
Type in all cases: cell-based, human
[1] = tested on: NCI-H441 cells; assay: 3D cell proliferation assay (CellTiter Glo-3D), NCI-H441; conditions: medium with 2% FBS, read-out: H441 AP IC50
Method in brief: (§1)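 Proliferation of the KRAS-mutant lines NCI-H441 and AsPC-1 is measured over 5 days of compound treatment in medium with 2% FBS. Inhibition is computed from luminescence relative to DMSO and cell-free controls, and IC50 comes from a four-parameter curve.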

[2] = tested on: p-ERK in AsPC-1 cells (KRAS G12D mutation); assay: Cell p-ERK assay (HTRF) in AsPC-1 cells; conditions: AsPC-1 cells, 3 h compound incubation, HTRF p-ERK T202/Y204, read-out: AsPC-1 p-ERK IC50
Method in brief: (§2)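 Phospho-ERK inhibition measured by HTRF after a 3 h compound exposure (0.1% DMSO) in overnight-seeded cells; IC50 derived from dose-response fitting.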

[3] = tested on: p-ERK in NCI-H441 cells (KRAS G12V mutation); assay: Cell p-ERK assay (HTRF) in NCI-H441 cells; conditions: NCI-H441 cells, 3 h compound incubation, HTRF p-ERK T202/Y204, read-out: H441 p-ERK IC50
Method in brief: as §2

[4] = tested on: AsPC-1 cells (KRAS G12D mutation); assay: 3D cell proliferation assay (CellTiter Glo-3D), AsPC-1; conditions: medium with 2% FBS, read-out: AsPC-1 AP IC50
Method in brief: as §1

[5] = 3D cell proliferation (CellTiter Glo-3D)
[6] = Homo sapiens, NCI-H441, 3D cell proliferation (CellTiter Glo-3D)
[7] = Homo sapiens, ASPC1, 3D cell proliferation (CellTiter Glo-3D)

Structure (SMILES)	IC50 [1, 5] [nM]	IC50 [2] [nM]	IC50 [3] [nM]	IC50 [4, 5] [nM]	IC50 [1, 6] [nM]	IC50 ([2]; Homo sapiens, ASPC1, 3 h) [nM]	IC50 ([3]; Homo sapiens, NCI-H441, 3 h) [nM]	IC50 [4, 7] [nM]
CCn1c(-c2cc(C#CCN3CCCOCC3)cnc2[C@H](C)OC)c2c3cc(ccc31)-c1csc(n1)C[C@H](NP(=O)(CC)CC)C(=O)N1CCC[C@H](N1)C(=O)OCC(C)(C)C2 (atropisomer, axis not shown; (Ra)) [Compound Z920, N-((6^3S,4S,Z)—(Ra)-1^2-(5-(3-(1,4-oxazepan-4-yl)prop-1-yn-1-yl)-2-((S)-1-methoxyethyl)pyridin-3-yl)-1^1-ethyl-10,10-dimethyl-5,7-dioxo-6^1,6^2,6^3,6^4,6^5,6^6-hexahydro-1^1H-8-oxa-2(4,2)-thiazola-1(5,3)-indola-6(1,3)-pyridazinacycloundecaphane-4-yl)-P,P-diethylphosphoramidite formate]	15	33.8	9.41	38.3				
CCn1c(-c2cc(C#CCN3CCCOCC3)cnc2[C@H](C)OC)c2c3cc(ccc31)-c1csc(n1)C[C@H](NC(=O)C(F)(F)C1CC1)C(=O)N1CCC[C@H](N1)C(=O)OCC(C)(C)C2 (atropisomer, axis not shown; (Ra)) [Compound Z927]					3.86	3.89	1.77	6.34
CCn1c(-c2cc(C#CCN3CCCOCC3)cnc2[C@H](C)OC)c2c3cc(ccc31)-c1csc(n1)C[C@H](NC(=O)C[C@@H]1CC1(F)F)C(=O)N1CCC[C@H](N1)C(=O)OCC(C)(C)C2 (atropisomer, axis not shown; (Ra)) [Compound Z932-1, N-((6^3S,4S,Z)—(Ra)-1′-(5-(3-(1,4-oxazepan-4-yl)prop-1-yn-1-yl)-2-((S)-1-methoxyethyl)pyridin-3-yl)-1^1-ethyl-10,10-dimethyl-5,7-dioxo-6^1,6^2,6^3,6^4,6^5,6^6-hexahydro-1^1H-8-oxa-2(4,2)-thiazola-1(5,3)-indola-6(1,3)-pyridazinacycloundecaphane-4-yl)-2-((R)-2,2-difluorocyclopropyl)acetamide]					2.25	2.28	1.02	3.82
CCn1c(-c2cc(C#CCN3CCCOCC3)cnc2[C@H](C)OC)c2c3cc(ccc31)-c1csc(n1)C[C@H](NC(=O)C[C@H]1CC1(F)F)C(=O)N1CCC[C@H](N1)C(=O)OCC(C)(C)C2 (atropisomer, axis not shown; (Ra)) [Compound Z932-2, N-((6^3S,4S,Z)—(Ra)-1^2-(5-(3-(1,4-oxazepan-4-yl)prop-1-yn-1-yl)-2-((S)-1-methoxyethyl)pyridin-3-yl)-1^1-ethyl-10,10-dimethyl-5,7-dioxo-6^1,6^2,6^3,6^4,6^5,6^6-hexahydro-1^1H-8-oxa-2(4,2)-thiazola-1(5,3)-indola-6(1,3)-pyridazinacycloundecaphane-4-yl)-2-((S)-2,2-difluorocyclopropyl)acetamide]					2.32	2.62	1.16	5.52
CCn1c(-c2cc(C#CCN3CCCOCC3)cnc2[C@H](C)OC)c2c3cc(ccc31)-c1csc(n1)C[C@H](NC(=O)CC1CC1(F)F)C(=O)N1CCC[C@H](N1)C(=O)OCC(C)(C)C2 (atropisomer, axis not shown; (Ra)) [Compound Z932]					1.68	2.14	1.22	4.14
CCn1c(-c2cc(C#CCN3CCCS(=O)(=O)CC3)cnc2[C@H](C)OC)c2c3cc(ccc31)-c1csc(n1)C[C@H](Nc1nnc3cc(C)ccn13)C(=O)N1CCC[C@H](N1)C(=O)OCC(C)(C)C2 (atropisomer, axis not shown; (Ra)) [Compound Z979]					1.23	2.47	1.05	5.14
CCn1c(-c2cc(C#CCN3CC[C@H](C#N)C3)cnc2[C@H](C)OC)c2c3cc(ccc31)-c1csc(n1)C[C@H](Nc1nnc3cc(C)ccn13)C(=O)N1CCC[C@H](N1)C(=O)OCC(C)(C)C2 (atropisomer, axis not shown; (Ra)) [Compound Z1011, (3S)-1-(3-(5-((6^3S,4S,Z)—(Ra)-1^1-ethyl-10,10-dimethyl-4-((7-methyl-[1,2,4]triazolo[4,3-a]pyridin-3-yl)amino)-5,7-dioxo-6^1,6^2,6^3,6^4,6^5,6^6-hexahydro-1^1H-8-oxa-2(4,2)-thiazola-1(5,3)-indola-6(1,3)-pyridazinacycloundecaphane-1-yl)-6-((S)-1-methoxyethyl)pyridin-3-yl)prop-2-yn-1-yl)pyrrolidine-3-carbonitrile]	1.54	2.89	1.22	2.07				
CCn1c(-c2cc(C#CCN3CCCOCC3)cnc2[C@H](C)OC)c2c3cc(ccc31)-c1csc(n1)C[C@H](NP1(=O)CC(C)=C(C)C1)C(=O)N1CCC[C@H](N1)C(=O)OCC(C)(C)C2 (atropisomer, axis not shown; (Ra)) [Compound Z1032, (6^3S,4S,Z)—(Ra)-1^2-(5-(3-(1,4-oxazepan-4-yl)prop-1-yn-1-yl)-2-((S)-1-methoxyethyl)pyridin-3-yl)-4-((3,4-dimethyl-1-oxido-2,5-dihydrophosphol-1-yl)amino)-1^1-ethyl-10,10-dimethyl-6^1,6^2,6^3,6^4,6^5,6^6-hexahydro-1^1H-8-oxa-2(4,2)-thiazola-1(5,3)-indola-6(1,3)-pyridazinacycloundecaphane-5,7-dione]					8.14	7.52	2.18	20.9

Second part, the compound after the results:

IC50 [1, 5] [nM]	IC50 [2] [nM]	IC50 [3] [nM]	IC50 [4, 5] [nM]	IC50 [1, 6] [nM]	IC50 ([2]; Homo sapiens, ASPC1, 3 h) [nM]	IC50 ([3]; Homo sapiens, NCI-H441, 3 h) [nM]	IC50 [4, 7] [nM]	Structure (SMILES)
				0.23	0.28	0.18	0.23	CCn1c(-c2cc(C#CCN3CC(OC)C3)cnc2[C@H](C)OC)c2c3cc(ccc31)-c1csc(n1)C[C@H](NC(=O)[C@H]1[C@H](C)[C@@H]1C)C(=O)N1CCC[C@H](N1)C(=O)OCC(C)(C)C2 (atropisomer, axis not shown; (Ra)) [Compound Z945, (1r,2R,3S)—N-((6^3S,4S,Z)-1^1-ethyl-1^2-(5-(3-(3-methoxyazetidin-1-yl)prop-1-yn-1-yl)-(Ra)-2-((S)-1-methoxyethyl)pyridin-3-yl)-10,10-dimethyl-5,7-dioxo-6^1,6^2,6^3,6^4,6^5,6^6-hexahydro-1^1H-8-oxa-2(4,2)-thiazola-1(5,3)-indola-6(1,3)-pyridazinacycloundecaphane-4-yl)-2,3-dimethylcyclopropane-1-carboxamide]
				0.43	0.42	0.5	0.36	CCn1c(-c2cc(C#CCN3CCCNCC3)cnc2[C@H](C)OC)c2c3cc(ccc31)-c1csc(n1)C[C@H](NC(=O)[C@H]1[C@H](C)[C@@H]1C)C(=O)N1CCC[C@H](N1)C(=O)OCC(C)(C)C2 (atropisomer, axis not shown; (Ra)) [Compound Z951]
				0.34	0.53	0.54	0.27	CO[C@@H](C)c1ncc(C#CCN2CCS(=O)(=O)CC2)cc1-c1c2c3cc(ccc3n1CCO)-c1csc(n1)C[C@H](NC(=O)[C@H]1[C@H](C)[C@@H]1C)C(=O)N1CCC[C@H](N1)C(=O)OCC(C)(C)C2 (atropisomer, axis not shown; (Ra)) [Compound Z952, (1r,2R,3S)—N-((6^3S,4S,Z)—(Ra)-1^2-(5-(3-(1,1-dioxidothiomorpholino)prop-1-yn-1-yl)-2-((S)-1-methoxyethyl)pyridin-3-yl)-1^1-(2-hydroxyethyl)-10,10-dimethyl-5,7-dioxo-6^1,6^2,6^3,6^4,6^5,6^6-hexahydro-1^1H-8-oxa-2(4,2)-thiazola-1(5,3)-indola-6(1,3)-pyridazinacycloundecaphane-4-yl)-2,3-dimethylcyclopropane-1-carboxamide]
				0.28	0.17	0.17	0.39	CCn1c(-c2cc(C#CCN3CCCOCC3)cnc2[C@H](C)OC)c2c3cc(ccc31)-c1csc(n1)C[C@H](NC(=O)C1[C@H]3COC[C@@H]13)C(=O)N1CCC[C@H](N1)C(=O)OCC(C)(C)C2 (atropisomer, axis not shown; (Ra)) [Compound Z1030]
				0.91	0.74	0.67	1.47	CCn1c(-c2cc(C#CCN3CCC3)cnc2[C@H](C)OC)c2c3cc(ccc31)-c1csc(n1)C[C@H](NC(=O)[C@H]1[C@@H]3COC[C@@H]31)C(=O)N1CCC[C@H](N1)C(=O)OCC(C)(C)C2 (atropisomer, axis not shown; (Ra)) [Compound Z1031, (1R,5S,6r)-N-((6^3S,4S,Z)-1^2-(5-(3-(azetidin-1-yl)prop-1-yn-1-yl)-(Ra)-2-((S)-1-methoxyethyl)pyridin-3-yl)-1^1-ethyl-10,10-dimethyl-5,7-dioxo-6^1,6^2,6^3,6^4,6^5,6^6-hexahydro-1^1H-8-oxa-2(4,2)-thiazola-1(5,3)-indola-6(1,3)-pyridazinacycloundecaphane-4-yl)-3-oxabicyclo[3,1,0]hexane-6-carboxamide]
